According to patent US12612412B2, “Antiviral heterocyclic compounds” (Enanta Pharmaceuticals, Inc., priority 2021, dated 2026):

Assays:
[1] = test system: recombinant HMPV CAN97-83 containing eGFP (MPV-GFP1); assay: HMPV antiviral assay Method-A (MPV-GFP1 eGFP fluorescence in Vero E6 cells); assay type: cell-based, Human metapneumovirus (HMPV); settings: human metapneumovirus, Vero C1008, 120 h, read-out: HMPV EC50
Method: HMPV antiviral activity was evaluated using a recombinant version of HMPV CAN97-83 engineered to contain the coding sequence for enhanced green fluorescence protein (eGFP) in the 3′ end of the virus genome (MPV-GFP1, ViraTree). Vero E6 cells ([…]) were seeded at a density of 12,000 cells/100 μL/well into 96-well cell plates one day prior to the assay. On the day of screening, the cell culture medium was aspirated from the wells and cells were washed twice with serum-free Eagle's Modified Essential Medium (EMEM, ATCC #) containing 1% penicillin-streptomycin (Invitrogen) (SF-EMEM). Cell washes were performed by dispensing 100 μL SF-EMEM per well and immediately aspirating the wash medium from the well. Following the second wash step, serum-free OptiMEM (Invitrogen, Cat No.) (SF-OptiMEM) containing 0.5 μg/mL TPCK-Trypsin (VENDOR) and 1% penicillin-streptomycin was added to the cells at 50 μL/well. Compounds were added into the 96-well plates using a JANUS automated liquid handling system (VENDOR). Compounds were initially diluted 1:50 into an intermediate 96-well plate containing SF-OptiMEM prior to transfer to the assay plate (25 μL/well). Each of the test compounds were tested in duplicate wells at final concentrations starting from 8 μM or 2 μM using ½ stepwise dilutions for a total of 8 points. Virus infection was performed by preparing a working stock of MPV-GFP1 at a multiplicity of infection (MOI) equal to 0.05/25 μL and aliquoting 25 μL of virus inoculum to the compound and positive control wells. SF-OptiMEM was added (25 μL/well) to the appropriate wells to serve as a virus-free negative control for the assay. The final DMSO concentration of all wells is 0.5%. Plates were incubated at 32° C., 5% CO2 for 5 days.
After 5 days incubation, eGFP fluorescence intensity was measured at (X) […] wavelength using a Spectramax i3× plate reader (VENDOR). Percent viral inhibition was calculated using the following equation: y=[…]
Where XQ is the fluorescence intensity measured in a well containing recombinant MPV-GFP1-infected, compound-treated cells and XP is the average fluorescence intensity measured in the wells containing untreated cells infected with recombinant virus. EC50 values were then calculated by non-linear regression using a four parameter curve logistic equation. The curve fit model employed was XLFit Dose Response One Site Model 200: y=(A+(B/(1+((x/C)^D))))
Where A is the minimum y value, B is the maximum y value, C is the log EC50 value, and D is the slope factor. […] EC50 ranges are as follows: A<0.5 μM; B>0.5 μM.

[2] = test system: genotype A, "Long" strain RSV; assay: RSV-A assay (CPE protection in Hep-2 cells, ATPlite readout); assay type: cell-based, Human respiratory syncytial virus (HRSV); settings: human respiratory syncytial virus, genotype A “Long” strain RSV, MOI 0.1, CPE protection, read-out: Human RSV-A (“Long”)
How it was run: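 Compound effect on RSV-induced CPE: Hep-2 monolayers, MOI 0.1, duplicate 2-fold titrations, 5-day culture in 10% FBS DMEM. Readout is ATP-based luminescence, normalised to virus-only and no-virus controls, giving EC50.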

Compound | EC50 [1] | EC50 [2]
C[C@]1(C(N)=O)COc2c1cc([C@@](O)(CNC(=O)c1cc(Cl)c3ncc(C4CC4)cc3c1)C(F)(F)F)nc2-c1ccc(F)cc1 [Example 72] | < 500 nM | < 200 nM
C[C@]1(C(N)=O)COc2c1cc([C@@](O)(CNC(=O)c1cc(Cl)c3ncc(C(F)(F)F)cc3c1)C(F)(F)F)nc2-c1ccc(F)cc1 [Example 73] | < 500 nM | < 200 nM
Cc1cc2cc(C(=O)NC[C@](O)(c3cc4c(c(-c5ccc(F)cc5)n3)OC[C@]4(C)C(N)=O)C(F)(F)F)cc(O)c2nc1C [Example 74] | < 500 nM | < 200 nM
COc1cc(C(=O)NC[C@](O)(c2cc3c(c(-c4ccc(F)cc4)n2)OC[C@]3(C)C(N)=O)C(F)(F)F)cc2cc(CO)c(C)nc12 [Example 75] | > 500 nM | < 200 nM
Cc1nc2c(Cl)cc(C(=O)NC[C@](O)(c3cc4c(c(-c5ccc(F)cc5)n3)OC[C@]4(C)C(N)=O)C(F)(F)F)cc2s1 [Example 77] | < 500 nM | < 200 nM
COc1cc(C(=O)NC[C@](O)(c2cc3c(c(-c4ccc(F)cc4)n2)OC[C@]3(C)C(N)=O)C(F)(F)F)cc2cc(C3CC3)c(C)nc12 [Example 78] | > 500 nM | < 200 nM
Cc1nc2c(OC3CC3)cc(C(=O)NC[C@](O)(c3cc4c(c(-c5ccc(F)cc5)n3)OC[C@]4(C)C(N)=O)C(F)(F)F)cc2s1 [Example 80] | < 500 nM | < 200 nM
COc1cc(C(=O)NC[C@](O)(c2cc3c(c(-c4ccc(F)cc4)n2)OC[C@]3(C)C(N)=O)C(F)(F)F)cc2cc(C3CC3)nnc12 [Example 81] | > 500 nM | < 200 nM
COc1cc(C(=O)NC[C@](O)(c2cc3c(c(-c4ccc(F)cc4)n2)OC[C@]3(C)C(N)=O)C(F)(F)F)cc2cc(Cl)c(C)nc12 [Example 82] | < 500 nM | < 200 nM
COc1cc(C(=O)NC[C@](O)(c2cc3c(c(-c4ccc(F)cc4)n2)OC[C@]3(C)C(N)=O)C(F)(F)F)cc2cc(C(F)(F)F)c(C)nc12 [Example 83] | < 500 nM | < 200 nM
C[C@]1(C(N)=O)COc2c1cc([C@@](O)(CNC(=O)c1cc(Cl)c3nn(C4CC4)cc3c1)C(F)(F)F)nc2-c1ccc(F)cc1 [Example 84] | < 500 nM | < 200 nM
C[C@]1(C(N)=O)COc2c1cc([C@@](O)(CNC(=O)c1cc(Cl)c3nn(C4CC4)cc3c1)C(F)(F)F)nc2-c1ccc(F)c(Cl)c1 [Example 85] | < 500 nM | < 200 nM
COc1cc(C(=O)NC[C@](O)(c2cc3c(c(-c4ccc(F)c(Cl)c4)n2)OC[C@]3(C)C(N)=O)C(F)(F)F)cc2cc(C3CC3)nnc12 [Example 86] | < 500 nM | < 200 nM
C[C@]1(C(N)=O)COc2c1cc([C@@](O)(CNC(=O)c1cc(Cl)c3nc(N)oc3c1)C(F)(F)F)nc2-c1ccc(F)cc1 [Example 91] | > 500 nM | < 200 nM
COc1cc(C(=O)NC[C@](O)(c2cc3c(c(-c4ccc(F)cc4)n2)OC[C@]3(C)C(N)=O)C(F)(F)F)cc2cc(C3CC3)nn12 [Example 92] | < 500 nM | < 200 nM
C[C@]1(C(N)=O)COc2c1cc([C@@](O)(CNC(=O)c1cc(Cl)c3[nH]c(C4CC4)nc3c1)C(F)(F)F)nc2-c1ccc(F)cc1 [Example 94] | > 500 nM | < 200 nM
COc1cc(C(=O)NC[C@](O)(c2cc3c(c(-c4ccc(F)cc4)n2)OC[C@]3(C)C(N)=O)C(F)(F)F)cc2nc(C3CC3)[nH]c12 [Example 95] | > 500 nM | < 200 nM
C[C@]1(C(N)=O)COc2c1cc([C@@](O)(CNC(=O)c1cc(OC3CC3)c3nc(C4CC4)sc3c1)C(F)(F)F)nc2-c1ccc(F)cc1 [Example 96] | < 500 nM | < 200 nM
Cc1nc2c(OC(F)(F)F)cc(C(=O)NC[C@](O)(c3cc4c(c(-c5ccc(F)cc5)n3)OC[C@]4(C)C(N)=O)C(F)(F)F)cc2s1 [Example 97] | > 500 nM | < 200 nM
Cc1n[nH]c2ccc(C(=O)NC[C@](O)(c3cc4c(c(-c5ccc(F)cc5)n3)OC[C@]4(C)C(N)=O)C(F)(F)F)cc12 [Example 100] | > 500 nM | < 200 nM

Compound | EC50 [1] | EC50 [2]
CCc1cc(C(=O)NC[C@](O)(c2cc3c(c(-c4ccc(F)cc4)n2)OC[C@]3(C)C(N)=O)C(F)(F)F)cc2cn[nH]c12 [Example 102] | < 500 nM | < 200 nM
C[C@]1(C(N)=O)COc2c1cc([C@@](O)(CNC(=O)c1cc(Cl)c3[nH]ncc3c1)C(F)(F)F)nc2-c1ccc(F)cc1 [Example 103] | < 500 nM | < 200 nM
C[C@]1(C(N)=O)COc2c1cc([C@@](O)(CNC(=O)c1cc(C(F)(F)F)c3[nH]ncc3c1)C(F)(F)F)nc2-c1ccc(F)cc1 [Example 105] | > 500 nM | < 200 nM
COc1cc(C(=O)NC[C@](O)(c2cc3c(c(-c4ccc(F)cc4)n2)OC[C@]3(C)C(N)=O)C(F)(F)F)cc2cn[nH]c12 [Example 108] | > 500 nM | < 200 nM
COc1ccc(C(=O)NC[C@](O)(c2cc3c(c(-c4ccc(F)cc4)n2)OC[C@]3(C)C(N)=O)C(F)(F)F)cc1Nc1nccnn1 [Example 112] | > 500 nM | < 200 nM
Cc1cnc2c(Nc3ccc(C)nn3)cc(C(=O)NC[C@](O)(c3cc4c(c(-c5ccc(F)cc5)n3)OC[C@]4(C)C(N)=O)C(F)(F)F)cc2c1 [Example 113] | < 500 nM | < 200 nM
Cc1cnc2c(Nc3ccc(C4CC4)nn3)cc(C(=O)NC[C@](O)(c3cc4c(c(-c5ccc(F)cc5)n3)OC[C@]4(C)C(N)=O)C(F)(F)F)cc2c1 [Example 114] | < 500 nM | < 200 nM
Cc1cnc2c(Nc3ccc(O)nn3)cc(C(=O)NC[C@](O)(c3cc4c(c(-c5ccc(F)cc5)n3)OC[C@]4(C)C(N)=O)C(F)(F)F)cc2c1 [Example 120] | > 500 nM | < 200 nM
COc1ccc(Nc2cc(C(=O)NC[C@](O)(c3cc4c(c(-c5ccc(F)cc5)n3)OC[C@]4(C)C(N)=O)C(F)(F)F)cc3cc(C)cnc23)nn1 [Example 121] | < 500 nM | < 200 nM
[2H]C([2H])([2H])c1cc(C(=O)NC[C@](O)(c2cc3c(c(-c4ccc(F)cc4)n2)OC[C@]3(C)C(N)=O)C(F)(F)F)cc2cn[nH]c12 [Example 128] | < 500 nM | < 200 nM
C[C@]1(C(N)=O)COc2c1cc([C@@](O)(CNC(=O)c1ccc3[nH]c(=O)sc3c1)C(F)(F)F)nc2-c1ccc(F)cc1 [Example 129] | > 500 nM | < 200 nM
COc1cc(C(=O)NC[C@](O)(c2cc3c(c(-c4ccc(F)cc4)n2)OC[C@]3(C)C(N)=O)C(F)(F)F)ccc1OC[C@H](O)C(F)(F)F [Example 132] | > 500 nM | < 200 nM
COc1cc(C(=O)NC[C@](O)(c2cc3c(c(-c4ccc(F)cc4)n2)OC[C@]3(C)C(N)=O)C(F)(F)F)ccc1OCC1(O)CC1 [Example 134] | > 500 nM | < 200 nM
C[C@]1(C(N)=O)COc2c1cc([C@@](O)(CNC(=O)c1ccc(OC[C@H](O)C(F)(F)F)c(OC3CC3)c1)C(F)(F)F)nc2-c1ccc(F)cc1 [Example 135] | > 500 nM | < 200 nM
COc1cc(C(=O)NC[C@](O)(c2cc3c(c(-c4ccc(F)cc4)n2)OC[C@]3(C)C(N)=O)C(F)(F)F)ccc1OC[C@H](O)C(F)F [Example 136] | > 500 nM | < 200 nM
COc1cc(C(=O)NC[C@](O)(c2cc3c(c(-c4ccc(F)cc4)n2)OC[C@]3(C)C(N)=O)C(F)(F)F)ccc1OC[C@@H](C)O [Example 138] | > 500 nM | < 200 nM
CCNc1nc2ccc(C(=O)NC[C@](O)(c3cc4c(c(-c5ccc(F)cc5)n3)OC[C@]4(C)C(N)=O)C(F)(F)F)cc2s1 [Example 139] | > 500 nM | < 200 nM
C[C@]1(C(N)=O)COc2c1cc([C@@](O)(CNC(=O)c1ccc3nc(C(F)F)sc3c1)C(F)(F)F)nc2-c1ccc(F)cc1 [Example 141] | > 500 nM | < 200 nM
C[C@]1(C(N)=O)COc2c1cc([C@@](O)(CNC(=O)c1ccc3nc(CF)sc3c1)C(F)(F)F)nc2-c1ccc(F)cc1 [Example 142] | > 500 nM | < 200 nM
